Measurements taken from US20090181972A1, “Novel Inhibitors of Cysteine Proteases, the Pharmaceutical Compositions Thereof and their Therapeutic Applications” (priority 2005, published 2009).
Read-outs that look alike come from different tables or passages of the source.

How the values were obtained:
USP8 = target: T1, USP8 (Homo sapiens, UniProt P40818); experiment: USP8 activity assay; type: biochemical; settings: 400 nM Ub-AMC, 630 pM enzyme, pH8.8; pre-incubated 30 minutes at 25° C., 60 minutes at 37° C.; sigmoidal fit; read-out: USP 8
T1 construct: His tag (pFastBac-HT vector) (N); made in house; host or cells: Sf9 or High Five insect cells (baculovirus)
T1 sequence (P40818 1-1118): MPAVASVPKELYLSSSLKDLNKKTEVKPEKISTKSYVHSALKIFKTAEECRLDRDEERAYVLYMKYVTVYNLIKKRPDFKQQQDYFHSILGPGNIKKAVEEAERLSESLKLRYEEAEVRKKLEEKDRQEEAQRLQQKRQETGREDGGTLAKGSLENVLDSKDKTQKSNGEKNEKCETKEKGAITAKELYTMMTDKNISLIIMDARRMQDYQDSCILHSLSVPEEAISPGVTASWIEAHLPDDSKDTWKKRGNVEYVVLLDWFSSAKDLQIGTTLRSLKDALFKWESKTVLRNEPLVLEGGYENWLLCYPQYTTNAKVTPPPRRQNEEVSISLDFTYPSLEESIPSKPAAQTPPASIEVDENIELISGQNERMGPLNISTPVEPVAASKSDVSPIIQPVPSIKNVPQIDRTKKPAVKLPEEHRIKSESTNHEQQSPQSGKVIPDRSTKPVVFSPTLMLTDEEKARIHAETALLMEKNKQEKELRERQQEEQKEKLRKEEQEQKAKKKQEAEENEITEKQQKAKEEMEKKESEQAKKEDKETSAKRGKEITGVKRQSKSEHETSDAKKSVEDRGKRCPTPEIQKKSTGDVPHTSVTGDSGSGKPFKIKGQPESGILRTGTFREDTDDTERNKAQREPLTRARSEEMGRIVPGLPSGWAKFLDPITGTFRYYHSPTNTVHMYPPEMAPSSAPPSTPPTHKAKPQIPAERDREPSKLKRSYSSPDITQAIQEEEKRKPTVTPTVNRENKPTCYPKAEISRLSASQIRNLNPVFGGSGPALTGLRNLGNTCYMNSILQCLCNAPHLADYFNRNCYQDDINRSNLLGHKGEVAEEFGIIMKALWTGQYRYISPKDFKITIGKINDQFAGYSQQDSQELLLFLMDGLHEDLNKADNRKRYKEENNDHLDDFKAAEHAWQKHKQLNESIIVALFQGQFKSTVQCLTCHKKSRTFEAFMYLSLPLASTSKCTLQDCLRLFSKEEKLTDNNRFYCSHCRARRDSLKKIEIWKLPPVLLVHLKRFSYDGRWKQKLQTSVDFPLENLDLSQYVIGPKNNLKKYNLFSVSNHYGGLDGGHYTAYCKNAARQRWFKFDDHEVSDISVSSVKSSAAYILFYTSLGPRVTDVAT
Excerpt: The cDNA encoding USP8 was obtained by PCR amplification from placenta mRNA. USP8 cDNA was subcloned by PCR into a baculovirus expression vector (pFastBac-HT; Invitrogen). A cDNA encoding a mutated USP8 was generated by mutagenic PCR. The corresponding protein encodes a cysteine to alanine substitution at residue 786. The sequences were ascertained by sequencing of the entire open reading frame. Bacmids encoding […] were generated following DH10bac transposition. The corresponding bacmids were transfected. into insect cells (Sf9). Viruses were recovered from culture supernatant and amplified twice. Insect cells (Sf9 or High Five; Invitrogen) were infected for 72 hours. Total cell lysates were harvested and lyzed in lysis buffer (Tris HCl 50 mM pH 7.6; 0.75 % NP40; 500 mM NaCl; 10% glycerol; 1 mM DTT; 10 mM imidazole; Protease Inhibitor Cocktail; AEBSF 20 μg.ml^−1; Aprotinin 10 μg.ml^−1). Proteins were affinity purified on metal affinity resins (Talon Metal affinity resin; BD Biosciences). Bound materials were extensively washed in wash buffer (50 mM Sodium Phosphate pH 7.0; 300 mM NaCl; 10 mM imidazole; 0.5% Triton X-100; 10% glycerol) and eluted from the resin in 250 mM imidazole-containing wash buffer. Proteins were dialyzed in dialysis buffer (Tris HCl pH 7.6 20 mM; NaCl 200 mM; DTT 1 mM; EDTA 1 mM; 10% Glycerol). Proteins purifications were analyzed on 4-12% NuPAGE (Invitrogen).
USP8 was diluted in USP buffer (50 mM Tris HCl; 0.5 mM EDTA; 5 mM DTT; 0.01% Triton X-100; Bovine Serum Albumin 0.05 mg.ml^−1 pH8.8). Compounds stocks (100 mM) were stored at −20° C. in DMSO.
Reactions were performed as duplicates in Black LJL 96 well plates (HE microplates; Molecular Devices; 20 μl final reaction volume).The substrate concentration for USP8 was 400 nM Ub-AMC (Boston Biochem). The concentrations of the enzyme (USP8) in specificity assays was 630 pM. The concentrations were determined in order to perform specificity assays under initial velocities at fixed substrate concentration. Compounds were pre-incubated with enzymes for 30 minutes at 25° C. Reactions were initiated by addition of substrate to the plates containing the enzymes (+/− compounds) diluted in assay buffer. Reactions were incubated for 60 minutes at 37° C. Reactions were stopped by adding acetic acid (100 mM final). Readings were performed on a Pherastar Fluorescent Reader (BMG). λ Emission 380 nm; λ Excitation=460 nm. Data (mean values +/− standard deviation) were analyzed as % of control (no compound) and plotted as percentage versus the Log of the compound concentration using GraphPad (Prism). Data were fitted to a sigmoidal model (variable slope).

[1] = system: HCT116 colon cancer cells; experiment: HCT116 cell viability and proliferation assay (MTS); type: cell-based; settings: mean of three independent experiments, read-out: HCT116 GI50 D3
Method in brief: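 HCT116 cells, 10^3 per well, treated 24 h after seeding with eight concentrations from 10 μM to 5 nM (0.5% final DMSO), in triplicate, for 72 h. Viability read by MTS reduction (2 h) at 492 nm. GI50 from sigmoidal variable-slope fit; mean of three independent experiments.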

[2] = Homo sapiens, HCT-116, 72 hours incubation

Compound	IC50 (USP8) [nM]	GI50 ([1]; 72 hours incubation) [nM]	GI50 [1, 2] [nM]
6-(7)-Chloro-1-methyl-2,3,4,10,10a-pentaaza-cyclopenta[b]fluoren-9-one [Example 3/A]	301	361	
CC(C)c1nnc2nc3c(nn12)C(=O)c1ccccc1-3 [Example 1l/A, 1-lsopropyl-2,3,4,10,10a-pentaaza-cyclopenta[b]fluoren-9-one]			2250
CC(C)c1nnc2nc3c(nn12)-c1ccccc1C3=O [Example 1l/B, 3-Isopropyl-1,2,3a,4,10-pentaaza-cyclopenta[b]fluoren-9-one]	186		157
O=C1c2ccccc2-c2nn3c(C(F)(F)F)nnc3nc21 [Example 1m/B, 3-Trifluoromethyl-1,2,3a,4,10-pentaaza-cyclopenta[b]fluoren-9-one]	162		28
COCCOCCOCc1nnc2nc3c(nn12)C(=O)c1ccccc1-3 [Example 1n/A, 1-[2-(2-Methoxy-ethoxy)-ethoxymethyl]-2,3,4,10,10a-pentaaza-cyclopenta[b]fluoren-9-one]	347		1910
COc1cc2c(cc1OC)-c1nn3c(C)nnc3nc1C2=O [Example 5a/B, 6,7-Dimethoxy-3-methyl-1,2,3a,4,10-pentaaza-cyclopenta[b]fluoren-9-one]	46		818
CCc1nnc2nc3c(nn12)C(=O)c1cc(OC)c(OC)cc1-3 [Example 5b/A, 1-Ethyl-6,7-dimethoxy-2,3,4,10,10a-pentaaza-cyclopenta[b]fluoren-9-one]	805		
CCc1nnc2nc3c(nn12)-c1cc(OC)c(OC)cc1C3=O [Example 5b/B, 3-Ethyl-6,7-dimethoxy-1,2,3a,4,10-pentaaza-cyclopenta[b]fluoren-9-one]	65		1180
CCCc1nnc2nc3c(nn12)-c1cc(OC)c(OC)cc1C3=O [Example 5c/B, 6,7-Dimethoxy-3-propyl-1,2,3a,4,10-pentaaza-cyclopenta[b]fluoren-9-one]	104		594
CCc1nnc2nc3c(nn12)-c1c(OC)ccc(OC)c1C3=O [Example 6/B, 3-Ethyl-5,8-dimethoxy-1,2,3a,4,10-pentaaza-cyclopenta[b]fluoren-9-one]	360		257
